Assay results: ChEMBL document CHEMBL1833808, “Identification of novel BRAF kinase inhibitors with structure-based virtual screening” (Bioorg Med Chem Lett, 2011)
pKd: −log10 of the molar value.

Biological target: Serine/threonine-protein kinase B-raf (Homo sapiens, UniProt P15056)
Assay: Inhibition of BRAF

Sequence of Serine/threonine-protein kinase B-raf (P15056 whole entry): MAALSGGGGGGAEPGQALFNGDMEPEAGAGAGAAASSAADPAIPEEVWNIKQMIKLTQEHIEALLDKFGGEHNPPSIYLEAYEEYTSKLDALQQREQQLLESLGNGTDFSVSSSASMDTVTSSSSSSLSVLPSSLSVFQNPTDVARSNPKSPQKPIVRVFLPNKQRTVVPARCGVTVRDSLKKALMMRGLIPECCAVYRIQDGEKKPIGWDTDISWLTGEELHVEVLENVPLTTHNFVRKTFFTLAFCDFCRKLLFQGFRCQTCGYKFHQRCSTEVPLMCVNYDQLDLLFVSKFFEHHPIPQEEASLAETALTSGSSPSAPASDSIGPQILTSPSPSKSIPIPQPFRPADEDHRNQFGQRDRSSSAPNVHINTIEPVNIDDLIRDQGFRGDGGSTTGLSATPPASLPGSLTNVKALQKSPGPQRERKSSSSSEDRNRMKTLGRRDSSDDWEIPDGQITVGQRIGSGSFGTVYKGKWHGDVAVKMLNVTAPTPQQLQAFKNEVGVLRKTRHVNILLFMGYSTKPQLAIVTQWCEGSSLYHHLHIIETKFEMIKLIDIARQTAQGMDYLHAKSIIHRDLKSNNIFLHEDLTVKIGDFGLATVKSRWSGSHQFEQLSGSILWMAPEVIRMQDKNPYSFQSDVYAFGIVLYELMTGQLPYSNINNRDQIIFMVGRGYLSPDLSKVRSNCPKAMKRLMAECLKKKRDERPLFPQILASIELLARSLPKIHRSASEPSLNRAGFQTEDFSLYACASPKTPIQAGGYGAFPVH

| SMILES | pKd |
| --- | --- |
| CCOC(=O)c1cccc(Nc2nc(N)nc3[nH]cnc23)c1 | 6.15 |
| O=C1N/C(=N\c2ccc(O)cc2)S/C1=C\c1c[nH]c2ccccc12 | 4.73 |
| Cc1ccc(/C=C/c2nc(N)nc(-c3ccccc3O)n2)o1 | 4.70 |

Other lines, results leading:

| pKd | SMILES |
| --- | --- |
| 4.90 | Cc1ccc(CNC(=O)c2c(N)n(-c3cccc(O)c3)c3nc4ccccc4nc23)cc1 |
| 5.68 | NC(=O)c1ccc(Nc2nnc(-c3ccc(O)cc3)c3ccccc23)cc1 |
